Experimental data published in US8987233B2, “Bruton's tyrosine kinase activity probe and method of using” (Pharmacyclics, Inc., priority 2006, dated 2015).

Experiments:
[1] = biological target: purified, active Btk (Homo sapiens, UniProt Q06187); experiment: Btk labeling in vitro (purified enzyme, SDS-PAGE, fluorescent scan)
[2] = biological target: EGFR (Homo sapiens, UniProt P00533); experiment: TR-FRET kinase assay, EGFR; assay type: biochemical; settings: ATP at Km
Method: (§1) Kinase activity for Btk, Abl, c-met, ITK, LCK, and EGFR was determined using a time-resolved fluorescence resonance energy transfer (TR-FRET) methodology. Measurements were performed in a reaction volume of 50 μl using 96-well assay plates. […] The reaction was quenched by the addition of 1.2 equivalents of EDTA (relative to divalent cation) in 25 μL of 1× Lance buffer (Perkin-Elmer). Streptavidin-APC (Perkin-Elmer) and Eu-labeled p-Tyr100 antibody (Perkin-Elmer) in 1× Lance buffer were added in a 25 μL volume to give final concentrations of 100 nM and 2.5 nM, respectively, and the mixture was allowed to incubate for one hour. The TR-FRET signal was measured on a multimode plate reader with an excitation wavelength of 330 nm and detection wavelengths of 615 and 665 nm. Activity was determined by the ratio of the fluorescence at 665 nm to that at 615 nm. For each compound, enzyme activity was measured at various concentrations of compound. Negative control reactions were performed in the absence of inhibitor in replicates of six, and two no-enzyme controls were used to determine baseline fluorescence levels. Inhibition constants {Ki(app)} were obtained using the program BatchKi (23). […]; for all kinases, [ATP]=KmATP, [Btk]total=0.5 nM and [Lck]total=6 nM.

[3] = test system: intracellular calcium mobilization in Ramos cells following B cell receptor activation; experiment: Calcium flux assay in Ramos B-cells stimulated with anti-human IgM; assay type: cell-based; settings: anti-IgM stimulation, read-out: IC50 Ca2+ flux (calcium mobilization)
Method: Calcium flux assay was performed according to the protocol described by the manufacturer (Molecular Devices). Briefly, actively growing Ramos B-cells in RPMI medium supplemented with 10% FBS were washed and re-plated in low serum medium to approximately 5×10^5 cells per 100 μl per well in 96-well plate. Compounds to be assayed were dissolved in DMSO, diluted to appropriate concentrations in low serum medium (from 0 to 10 μM final concentrations at a stepwise dilution factor of 0.3), added to each well (the final DMSO concentration was 0.01% in each well) and incubated at 37° in a 5% CO2 incubator for 1 hour. 100 μl calcium assay dye (Calcium 3 assay kit, Molecular Devices) was then added to each well and the incubation was continued for one hour. Compound-treated cells were stimulated with a goat anti-human IgM antibody (80 μg/ml) and the calcium mobilization signal was read in a Flexstation II 384 (Molecular Devices) at excitation and emission wavelengths of 485 nm and 538 nm, respectively, for 200 seconds. The relative fluorescence units (RFU) and the fifty percent inhibition values (IC50%) were recorded and analyzed using the SoftMax program (Molecular Devices).

[4] = biological target: Btk Tyr 551 to Ala mutant (Homo sapiens, UniProt Q06187, Y551A); experiment: Probe labeling in 293H cells transiently co-expressing PLCγ2 and Btk Y551A; settings: transient co-expression with PLCγ2
Btk Tyr 551 to Ala mutant, sequence (Q06187 whole entry Y551A): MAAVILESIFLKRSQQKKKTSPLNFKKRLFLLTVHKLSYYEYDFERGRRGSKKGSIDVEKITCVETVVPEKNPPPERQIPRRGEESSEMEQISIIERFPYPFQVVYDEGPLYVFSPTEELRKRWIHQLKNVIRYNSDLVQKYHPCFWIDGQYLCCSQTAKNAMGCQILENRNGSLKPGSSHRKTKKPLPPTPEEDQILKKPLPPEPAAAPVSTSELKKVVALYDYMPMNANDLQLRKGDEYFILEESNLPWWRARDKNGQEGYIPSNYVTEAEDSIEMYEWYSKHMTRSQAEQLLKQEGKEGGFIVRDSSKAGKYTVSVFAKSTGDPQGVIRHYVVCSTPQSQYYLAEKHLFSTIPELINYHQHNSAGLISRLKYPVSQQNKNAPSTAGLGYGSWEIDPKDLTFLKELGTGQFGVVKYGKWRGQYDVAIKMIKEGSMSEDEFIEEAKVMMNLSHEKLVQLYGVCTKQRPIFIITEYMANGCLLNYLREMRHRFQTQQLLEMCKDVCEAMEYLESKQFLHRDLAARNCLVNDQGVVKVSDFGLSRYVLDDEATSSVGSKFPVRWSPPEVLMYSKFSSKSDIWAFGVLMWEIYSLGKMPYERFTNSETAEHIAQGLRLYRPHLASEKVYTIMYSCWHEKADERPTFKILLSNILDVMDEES
Method: (§3) The selected co-expressor cell line was routinely maintained in D-MEM containing 10% FBS, 1× non-essential amino acids, 1× antibiotics, and supplemented with 200 μg/ml G418 and 25 μg/ml blastocidin. […] Cells were then harvested and lysed by incubation in 50 μl of cell lysis buffer (CelLytic M, Sigma) supplemented with 1× protease inhibitor and 1× phosphatase inhibitor cocktails (Calbiochem) for 10 min on ice. The protein concentrations in cell lysates were determined by Bradford protein assay (Pierce). Lysates equivalent to 20 μg of total protein were fractionated on 4 to 20% SDS-gradient gels (Invitrogen), and scanned using a Typhoon densitometer as described above. Labeling of Ramos cells was carried out in identical fashion except RPMI medium was used.

[5] = biological target: Btk Lys 430 to Ala mutant (Homo sapiens, UniProt Q06187, K430A); experiment: Probe labeling in 293H cells transiently co-expressing PLCγ2 and Btk K430A; settings: transient co-expression with PLCγ2
Btk Lys 430 to Ala mutant, sequence (Q06187 whole entry K430A): as the sequence (Q06187 whole entry Y551A) above, with K430A, A551Y counted along it
Method: as §3

[6] = biological target: Lck (Homo sapiens, UniProt P06239); experiment: TR-FRET kinase assay, Lck; assay type: biochemical; settings: ATP at Km
Lck, sequence (P06239 whole entry, species assumed): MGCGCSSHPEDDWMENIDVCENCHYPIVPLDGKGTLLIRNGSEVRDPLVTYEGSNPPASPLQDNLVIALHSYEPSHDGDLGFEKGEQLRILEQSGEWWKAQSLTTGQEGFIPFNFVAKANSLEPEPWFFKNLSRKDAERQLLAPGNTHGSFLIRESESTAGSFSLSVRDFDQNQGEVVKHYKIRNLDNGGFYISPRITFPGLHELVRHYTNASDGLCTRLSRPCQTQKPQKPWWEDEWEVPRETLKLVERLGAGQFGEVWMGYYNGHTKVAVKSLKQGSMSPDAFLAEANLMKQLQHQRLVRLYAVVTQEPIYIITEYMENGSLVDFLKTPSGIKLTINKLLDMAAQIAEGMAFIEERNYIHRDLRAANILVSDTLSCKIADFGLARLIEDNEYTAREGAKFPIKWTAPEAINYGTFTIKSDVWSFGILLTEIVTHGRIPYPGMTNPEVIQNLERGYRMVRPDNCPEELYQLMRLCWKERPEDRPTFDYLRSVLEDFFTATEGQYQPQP
Method: (§2) Kinase activity for Btk, Abl, c-met, ITK, LCK, and EGFR was determined using a time-resolved fluorescence resonance energy transfer (TR-FRET) methodology. Measurements were performed in a reaction volume of 50 μl using 96-well assay plates. […] For each compound, enzyme activity was measured at various concentrations of compound. Negative control reactions were performed in the absence of inhibitor in replicates of six, and two no-enzyme controls were used to determine baseline fluorescence levels. Inhibition constants {Ki(app)} were obtained using the program BatchKi (23).

[7] = biological target: Btk Cys 481 to Ala mutation (Homo sapiens, UniProt Q06187, C481A); experiment: Probe labeling in 293H cells transiently co-expressing PLCγ2 and Btk C481A; settings: transient co-expression with PLCγ2
Btk Cys 481 to Ala mutation, sequence (Q06187 whole entry C481A): as the sequence (Q06187 whole entry Y551A) above, with C481A, A551Y counted along it
Method: as §3

[8] = biological target: c-met (Homo sapiens, UniProt P08581); experiment: TR-FRET kinase assay, c-met; assay type: biochemical; settings: ATP at Km
c-met, sequence (P08581 25-1390): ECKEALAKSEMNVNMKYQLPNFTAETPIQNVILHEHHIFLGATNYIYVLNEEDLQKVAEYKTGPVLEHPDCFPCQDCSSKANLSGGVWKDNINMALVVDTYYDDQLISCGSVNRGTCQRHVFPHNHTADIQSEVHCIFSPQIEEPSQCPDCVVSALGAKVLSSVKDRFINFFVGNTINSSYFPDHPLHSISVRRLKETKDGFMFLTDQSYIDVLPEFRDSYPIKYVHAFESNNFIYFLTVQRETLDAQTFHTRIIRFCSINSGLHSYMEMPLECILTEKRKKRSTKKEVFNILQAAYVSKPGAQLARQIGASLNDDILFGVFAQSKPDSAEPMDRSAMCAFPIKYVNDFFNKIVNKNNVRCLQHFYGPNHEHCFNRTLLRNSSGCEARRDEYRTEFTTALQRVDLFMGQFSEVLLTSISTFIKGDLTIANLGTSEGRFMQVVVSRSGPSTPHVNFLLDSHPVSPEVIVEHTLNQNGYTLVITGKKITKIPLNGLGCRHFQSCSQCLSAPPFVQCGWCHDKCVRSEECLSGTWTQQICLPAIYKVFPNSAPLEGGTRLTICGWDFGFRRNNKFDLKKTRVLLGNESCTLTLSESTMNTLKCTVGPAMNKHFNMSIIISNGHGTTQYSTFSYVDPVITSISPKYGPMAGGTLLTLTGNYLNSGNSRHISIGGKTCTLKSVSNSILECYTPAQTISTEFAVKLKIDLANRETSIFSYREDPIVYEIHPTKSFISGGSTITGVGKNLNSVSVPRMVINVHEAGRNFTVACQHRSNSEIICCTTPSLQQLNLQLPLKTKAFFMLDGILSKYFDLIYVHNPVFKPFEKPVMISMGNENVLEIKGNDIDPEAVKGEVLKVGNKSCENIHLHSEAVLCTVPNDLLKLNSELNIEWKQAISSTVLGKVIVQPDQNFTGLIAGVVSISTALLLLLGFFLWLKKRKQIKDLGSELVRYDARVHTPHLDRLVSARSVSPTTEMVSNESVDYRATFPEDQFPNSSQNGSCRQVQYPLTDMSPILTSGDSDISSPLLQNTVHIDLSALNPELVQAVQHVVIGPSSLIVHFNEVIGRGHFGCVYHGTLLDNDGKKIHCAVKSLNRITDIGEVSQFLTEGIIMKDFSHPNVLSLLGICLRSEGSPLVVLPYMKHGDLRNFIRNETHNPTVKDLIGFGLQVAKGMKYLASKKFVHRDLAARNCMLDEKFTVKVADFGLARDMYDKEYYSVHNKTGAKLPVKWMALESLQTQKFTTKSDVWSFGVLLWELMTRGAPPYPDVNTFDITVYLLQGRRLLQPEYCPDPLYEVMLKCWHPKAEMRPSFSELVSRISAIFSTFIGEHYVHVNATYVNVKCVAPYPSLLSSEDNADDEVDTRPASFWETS
Method: as §1

[9] = biological target: T1, Btk (Homo sapiens, UniProt Q06187); experiment: TR-FRET kinase assay, Btk; assay type: biochemical; design: His6 (N); purchased Upstate Biochem
T1 sequence (Q06187 whole entry): as the sequence (Q06187 whole entry Y551A) above, with A551Y counted along it
Method: as §1

[10] = biological target: T1, Btk; experiment: Probe labeling of endogenous Btk in cultured B cells (DOHH2)
Method: In some embodiments, to determine if a test Btk probe detects endogenous levels of Btk activity, label cultured B cells such as Ramos or DOHH2 B cells were used.
Cells were then harvested and lysed by incubation in 50 μl of cell lysis buffer (CelLytic M, Sigma) supplemented with 1× protease inhibitor and 1× phosphatase inhibitor cocktails (Calbiochem) for 10 min on ice. The protein concentrations in cell lysates were determined by Bradford protein assay (Pierce). Lysates equivalent to 20 μg of total protein were fractionated on 4 to 20% SDS-gradient gels (Invitrogen), and scanned using a Typhoon densitometer as described above. Labeling of Ramos cells was carried out in identical fashion except RPMI medium was used.

[11] = biological target: T1, Btk; experiment: Probe labeling of Btk in 293H cells stably co-expressing Btk and PLCγ2
[12] = biological target: T1, Btk; experiment: Inhibition of PLCγ2 phosphorylation at Tyr 1217 in 293H cells (ELISA); assay type: cell-based; settings: Tyr 1217, ELISA, read-out: IC50 for probe inhibition of PLCγ2 phosphorylation
[13] = biological target: Abl (Homo sapiens, UniProt P00519); experiment: TR-FRET kinase assay, Abl; assay type: biochemical; settings: ATP at Km
Abl, sequence (P00519 whole entry, species assumed): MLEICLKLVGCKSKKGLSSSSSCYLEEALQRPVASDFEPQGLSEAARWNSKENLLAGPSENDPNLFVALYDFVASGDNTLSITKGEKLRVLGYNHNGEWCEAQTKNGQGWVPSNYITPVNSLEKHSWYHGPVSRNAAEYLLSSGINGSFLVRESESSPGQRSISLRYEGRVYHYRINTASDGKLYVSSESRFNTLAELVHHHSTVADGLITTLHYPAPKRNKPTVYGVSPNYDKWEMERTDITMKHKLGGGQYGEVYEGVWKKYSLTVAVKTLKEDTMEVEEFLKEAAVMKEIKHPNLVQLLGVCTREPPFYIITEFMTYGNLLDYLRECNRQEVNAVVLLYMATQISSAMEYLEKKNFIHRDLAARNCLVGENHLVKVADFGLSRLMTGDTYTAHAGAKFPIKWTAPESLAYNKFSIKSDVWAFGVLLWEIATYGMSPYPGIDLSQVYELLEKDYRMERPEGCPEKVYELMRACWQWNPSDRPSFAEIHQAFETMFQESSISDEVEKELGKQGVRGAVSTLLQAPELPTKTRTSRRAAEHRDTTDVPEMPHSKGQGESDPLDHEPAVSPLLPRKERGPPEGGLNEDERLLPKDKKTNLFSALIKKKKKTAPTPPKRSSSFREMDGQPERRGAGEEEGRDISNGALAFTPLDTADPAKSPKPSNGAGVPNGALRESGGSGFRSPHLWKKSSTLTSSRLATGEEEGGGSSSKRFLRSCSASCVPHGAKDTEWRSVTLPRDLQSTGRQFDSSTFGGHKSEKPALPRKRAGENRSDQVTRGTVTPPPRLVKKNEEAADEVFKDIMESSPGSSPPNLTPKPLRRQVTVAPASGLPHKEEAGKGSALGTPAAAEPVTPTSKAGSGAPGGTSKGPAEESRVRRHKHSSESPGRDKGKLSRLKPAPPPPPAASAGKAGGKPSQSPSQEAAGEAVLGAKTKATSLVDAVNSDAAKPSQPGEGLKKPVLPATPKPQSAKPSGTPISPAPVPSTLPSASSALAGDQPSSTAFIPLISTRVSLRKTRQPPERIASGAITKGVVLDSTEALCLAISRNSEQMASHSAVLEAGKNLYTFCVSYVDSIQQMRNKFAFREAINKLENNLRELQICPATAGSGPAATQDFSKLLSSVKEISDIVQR
Method: as §2

purified, active Btk, sequence (Q06187 whole entry): as the sequence (Q06187 whole entry Y551A) above, with A551Y counted along it
EGFR, sequence (P00533 25-1210, species assumed): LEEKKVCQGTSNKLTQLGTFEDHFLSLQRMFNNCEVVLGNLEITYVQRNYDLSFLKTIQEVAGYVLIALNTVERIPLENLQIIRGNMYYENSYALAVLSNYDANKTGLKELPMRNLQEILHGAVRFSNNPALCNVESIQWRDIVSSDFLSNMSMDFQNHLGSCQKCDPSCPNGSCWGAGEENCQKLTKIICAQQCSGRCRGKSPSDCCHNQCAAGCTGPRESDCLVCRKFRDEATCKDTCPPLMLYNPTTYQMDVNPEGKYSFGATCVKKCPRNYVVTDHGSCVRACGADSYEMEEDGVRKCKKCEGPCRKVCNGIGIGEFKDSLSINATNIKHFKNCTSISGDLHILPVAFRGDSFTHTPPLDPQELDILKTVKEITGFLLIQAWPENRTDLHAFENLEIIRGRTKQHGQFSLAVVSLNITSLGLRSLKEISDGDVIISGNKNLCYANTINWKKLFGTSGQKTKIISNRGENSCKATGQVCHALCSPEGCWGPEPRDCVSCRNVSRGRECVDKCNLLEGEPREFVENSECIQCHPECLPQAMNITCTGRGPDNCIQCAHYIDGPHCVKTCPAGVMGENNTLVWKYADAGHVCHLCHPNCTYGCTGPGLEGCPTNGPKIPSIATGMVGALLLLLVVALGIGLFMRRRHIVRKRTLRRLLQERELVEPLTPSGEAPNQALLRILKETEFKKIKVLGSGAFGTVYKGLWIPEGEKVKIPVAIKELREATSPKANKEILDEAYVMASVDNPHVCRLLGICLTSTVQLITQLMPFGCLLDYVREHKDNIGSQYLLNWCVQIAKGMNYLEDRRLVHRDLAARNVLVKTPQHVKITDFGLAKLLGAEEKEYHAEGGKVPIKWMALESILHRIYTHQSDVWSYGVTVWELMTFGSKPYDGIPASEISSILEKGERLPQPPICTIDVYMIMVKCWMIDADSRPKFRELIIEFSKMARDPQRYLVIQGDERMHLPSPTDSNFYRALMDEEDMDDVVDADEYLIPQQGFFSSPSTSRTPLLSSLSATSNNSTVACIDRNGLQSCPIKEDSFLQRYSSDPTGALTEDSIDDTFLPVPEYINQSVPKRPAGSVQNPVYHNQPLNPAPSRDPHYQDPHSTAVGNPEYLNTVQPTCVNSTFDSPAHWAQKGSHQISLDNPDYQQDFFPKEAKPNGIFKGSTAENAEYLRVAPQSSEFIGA

SMILES: Nc1ncnc2c1ncn2[C@@H]1O[C@H](COP(=O)(O)OP(=O)(O)OP(O)(O)=S)[C@@H](O)[C@H]1O [ATP-γ-S, reference compound]
- Effect of pre-incubation on Compound 3 labeling of Btk ([1]; pre-incubation with 1 μM Compound 2 or 0.5 mM ATPγS): substantially reduced

SMILES: CC1=CC(C)=[N+]2C1=Cc1ccc(CCC(=O)NCCN3CCN(C/C=C/C(=O)N4CCC[C@@H](n5nc(-c6ccc(Oc7ccccc7)cc6)c6c(N)ncnc65)C4)CC3)n1[B-]2(F)F [Compound 3]
- IC50 [2]: 2900 nM
- IC50 [3]: 230 nM
- Probe labeling of Btk Y551A mutant [4]: also labeled
- Probe labeling of Btk K430A mutant [5]: no effect on probe labeling
- IC50 [6]: 240 nM
- Probe labeling of Btk C481A mutant [7]: abrogated labeling
- IC50 [8]: 100000 nM
- IC50 ([9]; ATP at Km, read-out: IC50 Btk): 89 nM
- IC50 ([9]; read-out: IC50 against Btk): 90 nM
- EC50 [10]: ~200 nM
- EC50 [11]: ~200 nM
- IC50 [12]: 300 nM
- Probe concentration at which labeling of Btk reached saturation ([1]; 1 μg (0.13 μM) purified Btk, 1 hour at 37° C.): 1 µM
- IC50 [13]: 300 nM

SMILES: C=CC(=O)N1CCC[C@@H](n2nc(-c3ccc(Oc4ccccc4)cc3)c3c(N)ncnc32)C1 [Compound 2]
- IC50 [3]: 10 nM
- IC50 [8]: 35000 nM
